One experiment addresses T1, wildtype Kras / hSOS1 (Homo sapiens, UniProt P01116).
T1 construct: made in house; host or cells: E. coli BL21 (DE3)
Briefly: HTRF assay, wildtype Kras / SOS1 interaction. As to conditions: read-out: IC50 against wildtype Kras. The format is binding. The source says: (§1) This assay can be also used to assess a selective inhibition of a mutant Ras protein relative to a wildtype, or relative to a different mutant Ras protein. For example, the equilibrium interaction of wildtype Kras or K-Ras mutant (e.g., wildtype or a mutant thereof including those mentioned in Example 6) with SOS1 (e.g., hSOS1) can be assessed as a proxy or an indication for a subject compound's ability to bind and inhibit Ras protein. HTRF assay detects from (i) a fluorescence resonance energy transfer (FRET) donor (e.g., antiGST-Europium) that is bound to GST-tagged K-Ras mutant to (ii) a FRET acceptor (e.g., anti-6His-XL665) bound to a His-tagged hSOS1.
(§2) The assay buffer can contain ˜5 mM HEPES pH 7.4, ˜150 mM NaCl, ˜ 1 mM DTT, 0.05% BSA and 0.0025% (v/v) Igepal. A Ras working solution is prepared in an assay buffer containing typically a suitable amount of the protein construct (e.g., GST-tagged K-Ras mutant) and the FRET donor (e.g., antiGST-Eu(K) from Cisbio, France). A SOS1 working solution is prepared in an assay buffer containing suitable amount of the protein construct (e.g., His-hSOS1) and the FRET acceptor (e.g., anti-6His-XL665 from Cisbio, France). A suitable amount of the protein construct will depend on the range of activity or range of IC50 values being detected or under investigation. For detecting IC50 within a range of 500 nM, the protein constructs of the same range of molarity can be utilized.
(§3) A fixed volume of DMSO with or without test compound is transferred into a 384-well plate. Ras working solution is added to all wells of the test plate. SOS1 working solution is added to all wells except for those that are subsequently filled the inhibitor control solution. Upon incubation for about 10 minutes or longer, the fluorescence is measured with a M1000Pro plate reader (Tecan) using HTRF detection (excitation 337 nm, emission 1: 620 nm, emission 2: 665 nm). Compounds are tested in duplicates at different concentrations (for example, 10 μM, 2.5 μM, 0.63 μM, 0.16 μM, 0.04 µM, 0.01 μM test compound). The ratiometric data (i.e., emission 2 divided by emission 1) is used to calculate IC50 values against Ras using GraphPad Prism (GraphPad software). Following this general procedure, samples were tested with or without a subject compound disclosed herein including compounds exemplified in Table 1 to assess their abilities to inhibit K-Ras signaling or their respective IC50 values against a given Ras protein (e.g., a given mutant K-Ras) of interest.

The target in experiment [1] is GST-tagged K-Ras mutant / His-tagged hSOS1 (Homo sapiens, UniProt P01116). The experiment can be described thus: HTRF assay, K-Ras mutant / SOS1 interaction. The format is binding. Particulars: read-out: IC50 against mutant Kras.
From the text: as §1, §2, §3

Setting [2] is: compound nos. 102-196, general methodology of example 5.

In patent US20240254129A1, “HETEROCYCLIC COMPOUNDS AND USES THEREOF” (Kumquat Biosciences Inc., priority 2021, published 2024) one finds IC50 data, which are given here for 20 compounds.

Like-named read-outs stand apart in the source and are kept apart here. Bounds are passed on as bounds.

T1 sequence (P01116 1-188 isoform P01116-2): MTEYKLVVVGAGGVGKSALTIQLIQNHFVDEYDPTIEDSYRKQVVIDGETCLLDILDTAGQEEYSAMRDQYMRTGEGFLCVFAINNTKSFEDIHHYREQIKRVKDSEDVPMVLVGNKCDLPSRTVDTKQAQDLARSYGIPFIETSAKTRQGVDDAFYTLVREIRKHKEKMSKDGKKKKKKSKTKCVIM
Sequence of GST-tagged K-Ras mutant / His-tagged hSOS1 (P01116 whole entry G12D, form open): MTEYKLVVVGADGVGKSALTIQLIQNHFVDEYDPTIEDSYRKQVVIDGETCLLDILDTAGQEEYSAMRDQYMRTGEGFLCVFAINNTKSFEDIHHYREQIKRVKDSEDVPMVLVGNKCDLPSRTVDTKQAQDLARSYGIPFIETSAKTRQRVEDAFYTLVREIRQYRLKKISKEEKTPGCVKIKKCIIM

As for `Oc1cc(-c2cnc3c(N4CC5CCC(C4)N5)nc(OC[C@@]45CCCN4C[C@H](F)C5)nc3c2)c2ccccc2c1` (single isomer, unassigned) [Compound 429], the IC50 – broadly, the midpoint of a concentration-inhibition curve – on wildtype Kras / hSOS1 (compound nos. 401-703) is below 500 nM; in experiment [1] (compound nos. 401-703), above 500 nM.
`Oc1cc(-c2cnc3c(N4CC5CCC(C4)N5)nc(OC[C@@]45CCCN4C[C@H](F)C5)nc3c2)c2ccccc2c1` (single isomer, unassigned) [Compound 610]: the IC50 (on wildtype Kras / hSOS1 (compound nos. 401-703); in experiment [1] (compound nos. 401-703)) was above 500 nM each time.
With `CN1CCC[C@H]1COc1nc(N2CCNCC(F)(F)C2)c2cc(Cl)c(-c3cccc4sc(N)nc34)c(F)c2n1` [Compound 102, 4-(6-chloro-4-(6,6-difluoro-1,4-diazepan-1-yl)-8-fluoro-2-(((S)-1-methylpyrrolidin-2-yl)methoxy)quinazolin-7-yl)benzo[d]thiazol-2-amine], the 50% inhibitory concentration (IC50) (at wildtype Kras / hSOS1 (setting [2]); in experiment [1] (setting [2])) was below 500 nM each time.
On to `CN1CCC[C@H]1COc1nc(N2CCNCC(O)C2)c2cc(Cl)c(-c3cccc4sc(N)nc34)c(F)c2n1` (stereo partly drawn) [Compound 103, 1-(7-(2-aminobenzo[d]-thiazol-4-yl)-6-chloro-8-fluoro-2-(((S)-1-methyl-pyrrolidin-2-yl)methoxy)-quinazolin-4-yl)-1,4-diazepan-6-ol], for which the IC50 (on wildtype Kras / hSOS1 (setting [2]); in experiment [1] (setting [2])) was below 500 nM each time.
Take `CN1CCC[C@H]1COc1nc(N2CCNCC(F)(F)C2)c2cc(Cl)c(-c3ccc(F)c4sc(N)nc34)c(F)c2n1` [Compound 104, 4-(6-chloro-4-(6,6-difluoro-1,4-diazepan-1-yl)-8-fluoro-2-(((S)-1-methylpyrrolidin-2-yl)methoxy)quinazolin-7-yl)-7-fluorobenzo[d]thiazol-2-amine]: the IC50 (at wildtype Kras / hSOS1 (setting [2]); in experiment [1] (setting [2])) was below 500 nM in each case.
Regarding `Nc1nc2c(-c3c(Cl)cc4c(N5CCNCC(F)(F)C5)nc(OCC56CCCN5CCC6)nc4c3F)cccc2s1` [Compound 105, 4-(6-chloro-4-(6,6-difluoro-1,4-diazepan-1-yl)-8-fluoro-2-((tetrahydro-1H-pyrrol-izin-7a(5H)-yl)methoxy)-quinazolin-7-yl)benzo[d]-thiazol-2-amine], the IC50 (at wildtype Kras / hSOS1 (setting [2]); in experiment [1] (setting [2])) was below 500 nM in each case.
As for `CN1CCC[C@H]1COc1nc(N2CCOCC(F)(F)C2)c2cc(Cl)c(-c3ccc(F)c4sc(N)nc34)c(F)c2n1` [Compound 106, 4-(6-chloro-4-(6,6-difluoro-1,4-oxazepan-4-yl)-8-fluoro-2-(((S)-1-methylpyrrolidin-2-yl)methoxy)quinazolin-7-yl)-7-fluorobenzo[d]thiazol-2-amine], the IC50 (at wildtype Kras / hSOS1 (setting [2]); in experiment [1] (setting [2])) was below 500 nM in each case.
For `CN1CCC[C@H]1COc1nc(N2CCNC3COCC32)c2cc(Cl)c(-c3cccc4sc(N)nc34)c(F)c2n1` (stereo partly drawn) [Compound 107, 4-(6-chloro-8-fluoro-4-(hexahydrofuro[3,4-b]pyr-azin-1(2H)-yl)-2-(((S)-1-methylpyrrolidin-2-yl)meth-oxy)quinazolin-7-yl)benzo-[d]thiazol-2-amine], the IC50 (at wildtype Kras / hSOS1 (setting [2]); in experiment [1] (setting [2])) was above 500 nM each time.
Take `CN1CCC[C@H]1COc1nc(N2CCCCC(F)(F)C2)c2cc(Cl)c(-c3ccc(F)c4sc(N)nc34)c(F)c2n1` [Compound 108, 4-(6-chloro-4-(3,3-difluoro-azepan-1-yl)-8-fluoro-2-(((S)-1-methylpyrrolidin-2-yl)methoxy)quinazolin-7-yl)-7-fluorobenzo[d]thiazol-2-amine]: the IC50 (at wildtype Kras / hSOS1 (setting [2]); in experiment [1] (setting [2])) was below 500 nM in each case.
In the case of `Nc1nc2c(-c3c(Cl)cc4c(N5CCNCC(F)(F)C5)nc(OCC56CCCN5CCC6)nc4c3F)ccc(F)c2s1` [Compound 109, 4-(6-chloro-4-(6,6-difluoro-1,4-diazepan-1-yl)-8-fluoro-2-((tetrahydro-1H-pyrrol-izin-7a(5H)-yl)methoxy)-quinazolin-7-yl)-7-fluoro-benzo[d]thiazol-2-amine], the IC50 (at wildtype Kras / hSOS1 (setting [2]); in experiment [1] (setting [2])) was below 500 nM in each case.
In the case of `Nc1nc2c(-c3c(Cl)cc4c(N5CCNCC(F)(F)C5)ncnc4c3F)cccc2s1` [Compound 110, 4-(6-chloro-4-(6,6-difluoro-1,4-diazepan-1-yl)-8-fluoro-quinazolin-7-yl)benzo[d]-thiazol-2-amine], the IC50 (on wildtype Kras / hSOS1 (setting [2]); in experiment [1] (setting [2])) was above 500 nM each time.
`Cc1ccnc(C(C)C)c1-n1c(=O)nc(N2CCNCC(F)(F)C2)c2cc(F)c(-c3cccc4sc(N)nc34)nc21` [Compound 111, 7-(2-aminobenzo[d]thiazol-4-yl)-4-(6,6-difluoro-1,4-diazepan-1-yl)-6-fluoro-1-(2-isopropyl-4-methylpyr-idin-3-yl)pyrido[2,3-d]pyr-imidin-2(1H)-one]: the IC50 (on wildtype Kras / hSOS1 (setting [2]); in experiment [1] (setting [2])) was above 500 nM throughout.
Regarding `CN1CCC[C@H]1COc1nc(N2CCNC(=O)C(F)(F)C2)c2cc(Cl)c(-c3ccc(F)c4sc(N)nc34)c(F)c2n1` [Compound 112, 1-(7-(2-amino-7-fluoro-benzo[d]thiazol-4-yl)-6-chloro-8-fluoro-2-(((S)-1-methylpyrrolidin-2-yl)meth-oxy)quinazolin-4-yl)-6,6-difluoro-1,4-diazepan-5-one], the IC50 (on wildtype Kras / hSOS1 (setting [2]); in experiment [1] (setting [2])) was below 500 nM each time.
`CN1CCC[C@@H]1COc1nc(N2CCNCC(F)(F)C2)c2cc(Cl)c(-c3cccc4sc(N)nc34)c(F)c2n1` [Compound 113, 4-(6-chloro-4-(6,6-difluoro-1,4-diazepan-1-yl)-8-fluoro-2-(((R)-1-methylpyrrolidin-2-yl)methoxy)quinazolin-7-yl)benzo[d]thiazol-2-amine]: the IC50 (on wildtype Kras / hSOS1 (setting [2]); in experiment [1] (setting [2])) was below 500 nM throughout.
As for `Nc1nc2c(-c3c(Cl)cc4c(N5CCOCC(F)(F)C5)nc(OCC56CCCN5CCC6)nc4c3F)cccc2s1` [Compound 114, 4-(6-chloro-4-(6,6-difluoro-1,4-oxazepan-4-yl)-8-fluoro-2-((tetrahydro-1H-pyrrolizin-7a(5H)-yl)methoxy)quin-azolin-7-yl)benzo[d]thiazol-2-amine], the IC50 (at wildtype Kras / hSOS1 (setting [2]); in experiment [1] (setting [2])) was below 500 nM each time.
In the case of `Nc1nc2c(-c3c(Cl)cc4c(N5CCOCC(F)(F)C5)nc(OCC56CCCN5CCC6)nc4c3F)ccc(F)c2s1` [Compound 115, 4-(6-chloro-4-(6,6-difluoro-1,4-oxazepan-4-yl)-8-fluoro-2-((tetrahydro-1H-pyrrol-izin-7a(5H)-yl)methoxy)-quinazolin-7-yl)-7-fluoro-benzo[d]thiazol-2-amine], the IC50 (on wildtype Kras / hSOS1 (setting [2]); in experiment [1] (setting [2])) was below 500 nM each time.
As to `Nc1nc2c(-c3c(Cl)cc4c(N5CCCCC(F)(F)C5)nc(OCC56CCCN5CCC6)nc4c3F)cccc2s1` [Compound 116, 4-(6-chloro-4-(3,3-difluoro-azepan-1-yl)-8-fluoro-2-((tetrahydro-1H-pyrrolizin-7a(5H)-yl)methoxy)quin-azolin-7-yl)benzo[d]thiazol-2-amine], the IC50 (on wildtype Kras / hSOS1 (setting [2]); in experiment [1] (setting [2])) was below 500 nM throughout.
Regarding `N#CCC1CNCCN(c2nc(OCC34CCCN3CCC4)nc3c(F)c(-c4ccc(F)c5sc(N)nc45)c(Cl)cc23)C1` (stereo not shown) [Compound 188, 2-(1-(7-(2-amino-7-fluoro-benzo[d]thiazol-4-yl)-6-chloro-8-fluoro-2-((tetra-hydro-1H-pyrrolizin-7a(5H)-yl)methoxy)quin-azolin-4-yl)-1,4-diazepan-6-yl)acetonitrile], in experiment [1] (setting [2]), the IC50 is below 500 nM.
On to `CN1CCC[C@H]1COc1nc(N2CCCC(NC3CC3)CC2)c2cc(Cl)c(-c3cccc4sc(N)nc34)c(F)c2n1` (stereo partly drawn) [Compound 590, 4-(6-chloro-4-(4-(cycloprop-ylamino)azepan-1-yl)-8-fluoro-2-(((S)-1-methylpyr-rolidin-2-yl)methoxy)quin-azolin-7-yl)benzo[d]thiazol-2-amine], for which the IC50 in experiment [1] (compound nos. 401-703) was above 500 nM.
With `CN1CCC[C@H]1COc1nc(N2CCC(O)C(F)CC2)c2cc(Cl)c(-c3cccc4sc(N)nc34)c(F)c2n1` (stereo partly drawn) [Compound 675, 1-(7-(2-aminobenzo[d]-thiazol-4-yl)-6-chloro-8-fluoro-2-(((S)-1-methyl-pyrrolidin-2-yl)methoxy)-quinazolin-4-yl)-5-fluoro-azepan-4-ol], the IC50 on wildtype Kras / hSOS1 (compound nos. 401-703) was above 500 nM.
